This note sets out measurements from patent US10344025B2, “GLS1 inhibitors for treating disease” (Board of Regents, The University of Texas System, priority 2014, dated 2019).

Some results are limits rather than exact numbers.

Assay [1] addresses purified recombinant human GAC (GLS1) (Homo sapiens (Human), UniProt O94925). In words: GLS1 Enzymatic Activity Assay (dual-coupled enzymatic assay, resorufin/Amplex UltraRed readout).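 Also: glutamate from GAC coupled via glutamate oxidase and peroxidase to resorufin, read as fluorescence (ex 530, em 590 nm) kinetically or at 20 min, four-parameter logistic IC50 fit.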 Type of assay: biochemical.
In a further assay the test system is A549 cells. In words: Proliferation Assay (A549 viability, Cell Titer Fluor, 72 hours). In kind it is cell-based. As to conditions: Homo sapiens, A549, 72 h. The method in brief:
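Cell Titer Fluor fluorescence after 72 h compound treatment (0.5% DMSO, 37 °C, 5% CO2) of A549 cells plated 24 h earlier at 1000/well. Four-parameter logistic fitting gave IC50.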

Chain of purified recombinant human GAC (GLS1) (O94925 other isoform, or with tags, fused parts or gaps): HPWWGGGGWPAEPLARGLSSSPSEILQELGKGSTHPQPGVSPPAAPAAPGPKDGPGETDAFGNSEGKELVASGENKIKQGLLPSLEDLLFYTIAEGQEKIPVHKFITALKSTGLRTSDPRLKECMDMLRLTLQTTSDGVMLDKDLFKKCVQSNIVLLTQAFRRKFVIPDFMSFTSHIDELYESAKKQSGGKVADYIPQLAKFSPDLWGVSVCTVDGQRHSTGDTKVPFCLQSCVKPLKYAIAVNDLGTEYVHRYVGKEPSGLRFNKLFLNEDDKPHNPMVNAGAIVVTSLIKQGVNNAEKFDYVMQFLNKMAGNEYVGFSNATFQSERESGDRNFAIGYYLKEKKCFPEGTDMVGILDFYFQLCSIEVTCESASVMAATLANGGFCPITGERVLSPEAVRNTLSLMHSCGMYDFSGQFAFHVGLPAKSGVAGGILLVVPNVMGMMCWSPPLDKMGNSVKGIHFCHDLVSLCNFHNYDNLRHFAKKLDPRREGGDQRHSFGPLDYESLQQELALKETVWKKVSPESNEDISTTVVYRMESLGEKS

In general, IC50 refers to the concentration that inhibits the measured activity by half. A word on the EC50: it is the concentration needed to bring the measured effect to its halfway point. A low value points to greater potency. On to `O=C(NCc1cncc(C(F)(F)F)c1)c1cn(CCCCn2cc(C(=O)NCc3cncc(C(F)(F)F)c3)nn2)nn1` [Example 140, N-{[5-(trifluoromethyl)pyridin-3-yl]methyl}-1-{4-[4-({[5-(trifluoromethyl)pyridin-3-yl]methyl}carbamoyl)-1H-1,2,3-triazol-1-yl]butyl}-1H-1,2,3-triazole-4-carboxamide], for which the IC50 in assay [1] was < 0.1 µM. For the same compound, in the assay with A549 cells, the EC50 is < 0.1 µM.

As for `O=C(NCc1cncc(C(F)(F)F)c1)c1cn(CCCCn2cc(C(=O)NCc3cc(C(F)(F)F)ccn3)nn2)nn1` [Example 141, 1-{4-[4-({[4-(trifluoromethyl)pyridin-2-yl]methyl}carbamoyl)-1H-1,2,3-triazol-1-yl]butyl}-N-{[5-(trifluoromethyl)pyridin-3-yl]methyl}-1H-1,2,3-triazole-4-carboxamide], in assay [1], the IC50 is < 0.1 µM. The EC50 in the assay on A549 cells is < 0.1 µM.

`O=C(NCc1cncc(C(F)(F)F)c1)c1cn(CCCCn2cc(C(=O)NCc3ccc(C(F)(F)F)cn3)nn2)nn1` [Example 142, 1-{4-[4-({[5-(trifluoromethyl)pyridin-2-yl]methyl}carbamoyl)-1H-1,2,3-triazol-1-yl]butyl}-N-{[5-(trifluoromethyl)pyridin-3-yl]methyl}-1H-1,2,3-triazole-4-\ carboxamide]: the half-maximal inhibitory concentration (IC50) in assay [1] was < 0.1 µM. Also, the EC50 in the assay with A549 cells is < 0.1 µM.

Turning to `O=C(NCc1ccc(C(F)(F)F)nc1)c1cn(CCCCn2cc(C(=O)NCc3cncc(C(F)(F)F)c3)nn2)nn1` [Example 143, N-{[5-(trifluoromethyl)pyridin-3-yl]methyl}-1-{4-[4-({[6-(trifluoromethyl)pyridin-3-yl]methyl}carbamoyl)-1H-1,2,3-triazol-1-yl]butyl}-1H-1,2,3-triazole-4-carboxamide], in assay [1], the IC50 is < 0.1 µM. Moreover, the EC50 with A549 cells is < 0.1 µM.

On to `O=C(NCc1cncc(C(F)(F)F)c1)c1cn(CCCCn2cc(C(=O)NCc3cccc(C(F)(F)F)n3)nn2)nn1` [Example 144, 1-{4-[4-({[6-(trifluoromethyl)pyridin-2-yl]methyl}carbamoyl)-1H-1,2,3-triazol-1-yl]butyl}-N-{[5-(trifluoromethyl)pyridin-3-yl]methyl}-1H-1,2,3-triazole-4-carboxamide], for which, in assay [1], the IC50 was < 0.1 µM. Also, the EC50 in the assay with A549 cells is < 0.1 µM.

As for `O=C(NCc1cc(C(F)(F)F)ccn1)c1cn(CCC(F)Cn2cc(C(=O)NCc3cncc(C(F)(F)F)c3)nn2)nn1` (stereo not drawn) [Example 145, 1-{3-fluoro-4-[4-({[5-(trifluoromethyl)pyridin-3-yl]methyl}carbamoyl)-1H-1,2,3-triazol-1-yl]butyl}-N-1{[4-(trifluoromethyl)pyridin-2-yl]methyl}-1H-1,2,3-triazole-4-carboxamide], in assay [1], the IC50 is < 0.1 µM. Besides, in the assay on A549 cells, the EC50 is < 0.1 µM.

Consider `O=C(NCc1cccc(OC(F)(F)F)c1)c1cn(CCCCn2cc(C(=O)NCc3cncc(N4CC(F)(F)C4)c3)nn2)nn1` [Example 146, N-{[5-(3,3-difluoroazetidin-1-yl)pyridin-3-yl]methyl}-1-{4-[4-({[3-(trifluoromethoxy)phenyl]methyl}carbamoyl)-1H-1,2,3-triazol-1-yl]butyl}-1H-1,2,3-triazole-4-carboxamide], for which, in assay [1], the IC50 is < 0.1 µM. Also, the EC50 in the assay on A549 cells is < 0.1 µM.

Take `O=C(NCc1cccc(OC(F)(F)F)c1)c1cn(CCC(F)Cn2cc(C(=O)NCc3cc(C4CC4)ccn3)nn2)nn1` (stereo not drawn) [Example 147]: the IC50 in assay [1] is < 0.1 µM. The EC50 in the assay on A549 cells was < 0.1 µM.

Take `O=C(NCc1cc(C2CC2)ccn1)c1cn(CCC(F)Cn2cc(C(=O)NCc3cccc(OC(F)(F)F)c3)nn2)nn1` (stereo not drawn) [Example 148, 1-[4-(4-({[4-cyclopropylpyridin-2-yl)methyl]carbamoyl}-1H-1,2,3-triazol-1-yl)-2-fluorobutyl]-N-{[3-(trifluoromethoxy)phenyl]methyl}-1H-1,2,3-triazole-4-carboxamide]: the concentration for half-maximal inhibition (IC50) in assay [1] was < 0.1 µM. Further, the EC50 with A549 cells was < 0.1 µM.

For the compound `CNC(=O)c1cn(CC(F)CCn2cc(C(=O)NCc3cc(C(F)(F)F)ccn3)nn2)nn1` (stereo not drawn) [Example 149, 1-{2-fluoro-4-[4-({[4-yl]methyl}carbamoyl)-1H-1,2,3-triazol-1-yl]butyl}-N-methyl-1H-1,2,3-triazole-4-carboxamide], in assay [1], the IC50 lay in the range of 0.1 to 0.5 µM. In the assay with A549 cells, this compound yielded an EC50 of 0.5 to 5 µM.

`CNC(=O)c1cn(CC(F)CCn2cc(C(=O)NCc3cc(OC(F)(F)F)ccc3F)nn2)nn1` (stereo not drawn) [Example 150, 1-{2-fluoro-4-[4-({[2-fluoro-5-(trifluoromethoxy)phenyl]methyl}carbamoyl)-1H-1,2,3-triazol-1-yl]butyl}-N-methyl-1H-1,2,3-triazole-4-carboxamide]: the IC50 in assay [1] fell in the range of 0.1 to 0.5 µM. In the assay with A549 cells, this compound came in with an EC50 of 0.1 to 0.5 µM.

`CNC(=O)c1cn(CCC(F)Cn2cc(C(=O)NCc3cncc(C(F)(F)F)c3)nn2)nn1` (stereo not drawn) [Example 151, 1-{3-fluoro-4-[4-({[5-(trifluoromethyl)pyridin-3-1-yl]methyl}carbamoyl)-1H-1,2,3-triazol-1-yl]butyl}-N-methyl-1H-1,2,3-triazole-4-carboxamide]: the IC50 in assay [1] is 0.1 to 0.5 µM. In the assay on A549 cells, this compound gave an EC50 of 0.5 to 5 µM.

Regarding `O=C(NCc1cc(C2CC2)ccn1)c1cn(CCC(F)Cn2cc(C(=O)NCc3cncc(C(F)(F)F)c3)nn2)nn1` (stereo not drawn) [Example 152, N-[(4-cyclopropylpyridin-2-yl)methyl]-1-{3-fluoro-4-[4-({[5-(trifluoromethyl)pyridin-3-yl]methyl}carbamoyl)-1H-1,2,3-triazol-1-yl]butyl}-1H-1,2,3-triazole-4-carboxamide], the IC50 in assay [1] is < 0.1 µM. The EC50 in the assay on A549 cells is < 0.1 µM.

Turning to `CNC(=O)c1cn(CCC(F)Cn2cc(C(=O)NCc3cc(OC(F)(F)F)ccc3F)nn2)nn1` (stereo not drawn) [Example 153, 1-{3-fluoro-4-[4-({[2-fluoro-5-(trifluoromethoxy)phenyl]methyl}carbamoyl)-1H-1,2,3-triazol-1-yl]butyl}-N-methyl-1H-1,2,3-triazole-4-carboxamide], in assay [1], the IC50 is < 0.1 µM. Further, in the assay on A549 cells, the EC50 was in the range of 0.1 to 0.5 µM.

On to `CCNC(=O)c1cn(CCC(F)Cn2cc(C(=O)NCc3cc(C(F)(F)F)ccn3)nn2)nn1` (stereo not drawn) [Example 154, N-ethyl-1-{3-fluoro-4-[4-({[4-(trifluoromethyl)pyridin-2-yl]methyl}carbamoyl)-1H-1,2,3-triazol-1-yl]butyl}-1H-1,2,3-triazole-4-carboxamide], for which the IC50 in assay [1] fell in the range of 0.5 to 5 µM. Moreover, the 50% effective concentration (EC50) with A549 cells was 0.5 to 5 µM.

As for `O=C(NCc1cn2ccsc2n1)c1cn(CCC(F)Cn2cc(C(=O)NCc3cc(C(F)(F)F)ccn3)nn2)nn1` (stereo not drawn) [Example 155, 1-{3-fluoro-4-[4-({[4-(trifluoromethyl)pyridin-2-yl]methyl}carbamoyl)-1H-1,2,3-triazol-1-yl]butyl}-N-{imidazo[2,1-b][1,3]thiazol-6-ylmethyl}-1H-1,2,3-triazole-4-carboxamide], the concentration for half-maximal inhibition (IC50) in assay [1] is < 0.1 µM. The EC50 in the assay on A549 cells was 0.5 to 5 µM.

Regarding `O=C(NCc1ccc(C(F)(F)F)cn1)c1cn(CCC(F)Cn2cc(C(=O)NCc3cc(C(F)(F)F)ccn3)nn2)nn1` (stereo not drawn) [Example 156, 1-{2-fluoro-4-[4-({[5-(trifluoromethyl)pyridin-2-yl]methyl}carbamoyl)-1H-1,2,3-triazol-1-yl]butyl}-N-{[4-(trifluoromethyl)pyridin-2-yl]methyl}-1H-1,2,3-triazole-4-carboxamide], in assay [1], the IC50 is < 0.1 µM. For the same compound, the EC50 with A549 cells is < 0.1 µM.

Consider `O=C(NCc1cc(C(F)(F)F)ccn1)c1cn(CCCCn2cc(C(=O)NCc3cc(C(F)(F)F)ccn3)nn2)nn1` [Example 158, N-{[4-(trifluoromethyl)pyridin-2-yl]methyl}-1-{4-[4-({[4-(trifluoromethyl)pyridin-2-yl]methyl}carbamoyl)-1H-1,2,3-triazol-1-yl]butyl}-1H-1,2,3-triazole-4-carboxamide], for which the IC50 in assay [1] was < 0.1 µM. The concentration for a half-maximal effect (EC50) in the assay with A549 cells is < 0.1 µM.

With `Cc1ccnc(CNC(=O)c2cn(CCC(F)Cn3cc(C(=O)NCc4cc(C(F)(F)F)ccn4)nn3)nn2)c1` (stereo not drawn) [Example 159, 1-[2-fluoro-4-(4-{[(4-methylpyridin-2-yl)methyl]carbamoyl}-1H-1,2,3-triazol-1-yl)butyl]-N-{[4-(trifluoromethyl)pyridin-2-yl]methyl}-1H-1,2,3-triazole-4-carboxamide], the IC50 in assay [1] was < 0.1 µM. Also, the EC50 in the assay on A549 cells lay within 0.1 to 0.5 µM.

`CNC(=O)c1cn(CCCCc2ccc(NC(=O)Cc3cc(OC(F)(F)F)ccc3F)nn2)nn1` [Example 160, 1-[4-(6-{2-[2-fluoro-5-(trifluoromethoxy)phenyl]acetamido}pyridazin-3-yl)butyl]-N-methyl-1H-1,2,3-triazole-4-carboxamide]: in assay [1], the IC50 is < 0.1 µM. For the same compound, the EC50 with A549 cells is < 0.1 µM.

Turning to `CNC(=O)c1cn(CCCCc2ccc(NC(=O)Cc3ccccc3)nn2)nn1` [Example 161, N-methyl-1-{4-[6-(2-phenylacetamido)pyridazin-3-yl]butyl}-1H-1,2,3-triazole-4-carboxamide], the 50% inhibitory concentration (IC50) in assay [1] is < 0.1 µM. Further, the EC50 with A549 cells was < 0.1 µM.

Consider `CNC(=O)c1cn(CCC(F)Cn2cc(C(=O)NCc3cccc(OC(F)(F)F)c3)nn2)nn1` (stereo not drawn) [Example 162, 1-{3-fluoro-4-[4-({[3-(trifluoromethoxy)phenyl]methyl}carbamoyl)-1H-1,2,3-triazol-1-yl]butyl}-N-methyl-1H-1,2,3-triazole-4-carboxamide], for which the IC50 in assay [1] fell in the range of 0.1 to 0.5 µM. The same compound gave an EC50 in the assay with A549 cells of 0.1 to 0.5 µM.

Turning to `CNC(=O)c1cn(CCC(F)Cn2cc(C(=O)NCc3ccccn3)nn2)nn1` (stereo not drawn) [Example 163, 1-(3-fluoro-4-{4-[(pyridin-2-ylmethyl)carbamoyl]-1H-1,2,3-triazol-1-yl}butyl)-N-methyl-1H-1,2,3-triazole-4-carboxamide], in assay [1], the half-inhibitory concentration (IC50) fell in the range of 0.5 to 5 µM. This compound also returned an EC50 in the assay on A549 cells of 0.5 to 5 µM.

Take `CNC(=O)c1cn(CCC(F)Cn2cc(C(=O)NCc3cncc(C4CC4)c3)nn2)nn1` (stereo not drawn) [Example 164, 1-[4-(4-{[(5-cyclopropylpyridin-3-yl)methyl]carbamoyl}-1H-1,2,3-triazol-1-yl)-3-fluorobutyl]-N-methyl-1H-1,2,3-triazole-4-carboxamide]: the 50% inhibitory concentration (IC50) in assay [1] is < 0.1 µM. The compound also yielded an EC50 with A549 cells of 0.1 to 0.5 µM.
